Assay results reported in patent US9096591B2, “Tetracyclic compounds” (Medivation Technologies, Inc., priority 2007, dated 2015).

Experiments:
[1] = target: T1, human recombinant adrenergic α1D receptor (Homo sapiens, UniProt P25100); assay: Adrenergic α1D radioligand binding ([3H]Prozosin); parameters: Inhibition of ligand binding, Adren. alpha1D: concentration or dose not given beside the values; details: percent inhibition of specific binding
T1 construct: expressed in transfected cells; host or cells: HEK-293 cells
T1 sequence (P25100 1-572): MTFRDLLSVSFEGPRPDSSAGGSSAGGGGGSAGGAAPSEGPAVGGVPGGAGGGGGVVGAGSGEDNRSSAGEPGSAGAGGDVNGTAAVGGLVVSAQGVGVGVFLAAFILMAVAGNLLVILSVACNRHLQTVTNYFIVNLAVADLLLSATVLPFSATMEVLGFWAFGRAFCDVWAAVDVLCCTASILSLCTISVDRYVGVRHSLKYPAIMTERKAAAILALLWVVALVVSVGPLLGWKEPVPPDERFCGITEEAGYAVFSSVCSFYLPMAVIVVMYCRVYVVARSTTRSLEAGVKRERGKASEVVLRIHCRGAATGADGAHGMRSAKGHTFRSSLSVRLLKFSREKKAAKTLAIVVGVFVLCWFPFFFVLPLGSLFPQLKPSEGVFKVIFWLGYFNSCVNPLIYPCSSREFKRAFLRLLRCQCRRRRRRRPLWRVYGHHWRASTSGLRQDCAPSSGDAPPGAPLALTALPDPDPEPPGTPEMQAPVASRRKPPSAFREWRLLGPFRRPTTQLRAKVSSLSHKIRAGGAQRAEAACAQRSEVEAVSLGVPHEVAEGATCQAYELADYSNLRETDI
Experimental: Compounds of invention were incubated with 0.6 nM [^3H]Prozosin for 60 minutes at 25° C. Non-specific binding was estimated in the presence of 10 μM phentolamine. Receptor proteins were filtered and washed, the filters were then counted to determine [^3H]Prozosin specifically bound. […] Biochemical assay results are presented as the percent inhibition of specific binding in Table 6.

[2] = target: T2, human recombinant adrenergic α2B receptor (Homo sapiens, UniProt P18089); assay: Adrenergic α2B radioligand binding ([3H]Rauwolscine); parameters: Inhibition of ligand binding, Adren. alpha2B: concentration or dose not given beside the values; details: percent inhibition of specific binding
T2 construct: expressed in transfected cells; host or cells: CHO-K1 cells
T2 sequence (P18089 1-450): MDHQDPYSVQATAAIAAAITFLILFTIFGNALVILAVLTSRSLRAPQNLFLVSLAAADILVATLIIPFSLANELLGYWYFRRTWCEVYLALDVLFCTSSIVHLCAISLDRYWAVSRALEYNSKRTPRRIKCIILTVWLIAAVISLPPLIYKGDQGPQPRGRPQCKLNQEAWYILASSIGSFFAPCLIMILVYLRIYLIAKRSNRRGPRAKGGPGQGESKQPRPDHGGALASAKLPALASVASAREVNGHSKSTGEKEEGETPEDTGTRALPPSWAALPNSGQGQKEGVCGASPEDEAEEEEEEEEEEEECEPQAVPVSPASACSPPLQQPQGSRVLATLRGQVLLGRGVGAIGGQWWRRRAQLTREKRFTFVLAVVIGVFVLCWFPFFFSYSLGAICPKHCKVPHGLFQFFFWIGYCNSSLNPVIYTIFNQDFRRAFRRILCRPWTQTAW
How it was run: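 Membranes from CHO-K1 cells expressing the receptor, in 50 mM Tris-HCl pH 7.4 with 12.5 mM MgCl2, 1 mM EDTA, 0.2% BSA, incubated with compounds and 2.5 nM [3H]Rauwolscine for 60 minutes at 25 °C.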

[3] = target: T3, human recombinant serotonin (5-Hydroxytryptamine) 5-HT2A receptor (Homo sapiens, UniProt P28223); assay: Serotonin 5-HT2A radioligand binding ([3H]Ketanserin); details: percent inhibition of specific binding
T3 construct: expressed in transfected cells; host or cells: CHO-K1 cells
T3 sequence (P28223 whole entry): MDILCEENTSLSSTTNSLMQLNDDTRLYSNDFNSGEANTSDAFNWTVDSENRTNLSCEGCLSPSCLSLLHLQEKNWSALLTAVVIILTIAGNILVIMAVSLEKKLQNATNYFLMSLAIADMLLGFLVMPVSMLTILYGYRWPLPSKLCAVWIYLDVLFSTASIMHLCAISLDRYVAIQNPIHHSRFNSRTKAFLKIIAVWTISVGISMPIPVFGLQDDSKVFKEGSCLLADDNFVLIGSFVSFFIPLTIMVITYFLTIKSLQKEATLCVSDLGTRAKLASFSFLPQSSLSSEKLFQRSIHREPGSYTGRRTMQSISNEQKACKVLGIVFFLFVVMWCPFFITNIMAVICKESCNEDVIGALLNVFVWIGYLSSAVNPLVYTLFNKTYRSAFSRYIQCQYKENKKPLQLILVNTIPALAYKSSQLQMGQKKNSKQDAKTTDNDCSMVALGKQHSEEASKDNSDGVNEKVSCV
Experimental: Compounds of the invention were incubated with 0.5 nM [^3H]Ketanserin for 60 minutes at 25° C. Non-specific binding was estimated in the presence of 1 μM Mianserin. Receptor proteins were filtered and washed, the filters were then counted to determine [^3H]Ketanserin specifically bound. […] Biochemical assay results are presented as the percent inhibition of specific binding in Table 6.

[4] = target: T4, human recombinant serotonin (5-Hydroxytryptamine) 5-HT6 receptor (Homo sapiens, UniProt P50406); assay: Serotonin 5-HT6 radioligand binding ([3H]LSD); parameters: Inhibition of ligand binding, Ser. 5-HT6: concentration or dose not given beside the values; details: percent inhibition of specific binding
T4 construct: expressed in transfected cells; host or cells: human HeLa cells
T4 sequence (P50406 whole entry): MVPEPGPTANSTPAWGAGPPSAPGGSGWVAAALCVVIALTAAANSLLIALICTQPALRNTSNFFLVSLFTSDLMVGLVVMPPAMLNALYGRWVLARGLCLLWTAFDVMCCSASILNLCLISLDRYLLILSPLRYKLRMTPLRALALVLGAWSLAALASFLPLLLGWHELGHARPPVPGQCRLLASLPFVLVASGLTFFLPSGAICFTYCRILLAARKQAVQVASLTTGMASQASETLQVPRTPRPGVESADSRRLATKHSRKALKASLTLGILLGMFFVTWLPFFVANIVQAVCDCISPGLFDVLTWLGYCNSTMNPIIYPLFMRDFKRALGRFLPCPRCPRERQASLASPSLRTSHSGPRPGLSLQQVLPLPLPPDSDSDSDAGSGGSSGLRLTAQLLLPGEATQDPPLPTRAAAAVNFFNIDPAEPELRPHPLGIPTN
Text: Receptor proteins were filtered and washed, the filters were then counted to determine [3H]LSD specifically bound. […] Biochemical assay results are presented as the percent inhibition of specific binding in Table 6.

[5] = target: T5, human recombinant histamine H1 receptor (Homo sapiens, UniProt P35367); assay: Histamine H1 radioligand binding ([3H]Pyrilamine); details: percent inhibition of specific binding; screened at 1 μM; read-out: Inhibition of ligand binding, Hist. H1
T5 construct: expressed in transfected cells; host or cells: CHO cells
T5 sequence (P35367 whole entry): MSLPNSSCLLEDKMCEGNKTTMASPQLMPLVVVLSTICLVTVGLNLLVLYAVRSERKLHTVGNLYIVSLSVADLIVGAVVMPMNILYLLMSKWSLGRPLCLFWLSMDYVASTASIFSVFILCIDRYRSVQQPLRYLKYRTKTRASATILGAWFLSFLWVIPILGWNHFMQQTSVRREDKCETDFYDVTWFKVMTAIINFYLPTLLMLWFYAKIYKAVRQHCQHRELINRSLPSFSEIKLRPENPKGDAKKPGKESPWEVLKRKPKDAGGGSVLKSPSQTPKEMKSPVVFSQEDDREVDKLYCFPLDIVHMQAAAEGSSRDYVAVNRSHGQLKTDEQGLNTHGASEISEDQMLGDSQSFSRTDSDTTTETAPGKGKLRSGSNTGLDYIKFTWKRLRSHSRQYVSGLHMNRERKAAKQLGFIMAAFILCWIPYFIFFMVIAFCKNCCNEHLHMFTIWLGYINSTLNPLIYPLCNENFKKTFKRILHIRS
How it was run: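 Receptor expressed in CHO cells, assayed in 50 mM Tris-HCl pH 7.4 with 2 mM MgCl2, 100 mM NaCl, 250 mM sucrose. Compounds tested at 1 μM in 1% DMSO; non-specific binding set with 1 μM pyrilamine. Filter-bound radioactivity counted; values are percent inhibition of specific binding.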

[6] = target: T6, human recombinant dopamine D2L receptor (Homo sapiens, UniProt P14416); assay: Dopamine D2L radioligand binding ([3H]Spiperone); details: percent inhibition of specific binding
T6 construct: expressed in transfected cells; host or cells: CHO cells
T6 sequence (P14416 whole entry): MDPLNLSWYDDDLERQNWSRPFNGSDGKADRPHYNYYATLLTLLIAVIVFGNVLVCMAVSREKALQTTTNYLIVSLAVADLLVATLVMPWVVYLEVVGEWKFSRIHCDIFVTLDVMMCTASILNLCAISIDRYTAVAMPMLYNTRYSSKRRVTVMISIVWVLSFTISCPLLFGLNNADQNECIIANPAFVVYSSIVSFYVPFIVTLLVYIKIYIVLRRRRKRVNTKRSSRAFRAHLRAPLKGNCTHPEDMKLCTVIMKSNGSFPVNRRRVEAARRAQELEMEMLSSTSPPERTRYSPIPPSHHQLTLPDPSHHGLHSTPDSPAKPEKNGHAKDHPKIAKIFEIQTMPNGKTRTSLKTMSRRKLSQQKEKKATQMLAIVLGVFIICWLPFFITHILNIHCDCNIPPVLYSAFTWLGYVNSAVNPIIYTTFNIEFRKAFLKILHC
Experimental: Non-specific binding was estimated in the presence of 10 μM Haloperidol. Receptor proteins were filtered and washed, the filters were then counted to determine [^3H]Spiperone specifically bound. […] Biochemical assay results are presented as the percent inhibition of specific binding in Table 6.

SMILES	Inhibition of ligand binding, Adren. alpha1D [1] [%]	Inhibition of ligand binding, Adren. alpha2B [2] [%]	Inhibition of ligand binding, Ser. 5-HT2A [3] [%]	Inhibition of ligand binding, Ser. 5-HT6 [4] [%]	inhibition at 1 µM [5] [%]	Inhibition of ligand binding, Dop. D2L [6] [%]
CCc1ccc2c(c1)c1c(n2CCc2cnc(C)nc2)CCN(C)C1 [Compound 362, 8-Ethyl-2-methyl-5-[2-(2-methyl-pyrimidin-5-yl)-ethyl]-2,3,4,5-tetrahydro-1H-pyrido[4,3-b]indole]	76	82	27	61	98	17
Cc1cnc(CCn2c3c(c4cc(Cl)ccc42)CN(C)CC3)cn1 [Compound 363, 8-Chloro-2-methyl-5-[2-(5-methyl-pyrazin-2-yl)-ethyl]-2,3,4,5-tetrahydro-1H-pyrido[4,3-b]indole]	73	104	75	83	95	24
CCc1ccc2c(c1)c1c(n2CCc2cnc(C)cn2)CCN(C)C1 [Compound 364, 8-Ethyl-2-methyl-5-[2-(5-methyl-pyrazin-2-yl)-ethyl]-2,3,4,5-tetrahydro-1H-pyrido[4,3-b]indole]	77	109	59	70	87	29
Cc1cnc(CCn2c3c(c4cc(C(C)C)ccc42)CN(C)CC3)cn1 [Compound 369, 8-Isopropyl-2-methyl-5-[2-(5-methyl-pyrazin-2-yl)-ethyl]-2,3,4,5-tetrahydro-1H-pyrido[4,3-b]indole]	51	105	10	23	39	1
Cc1ncc(CCn2c3c(c4cc(C(C)C)ccc42)CN(C)CC3)cn1 [Compound 370, 8-Isopropyl-2-methyl-5-[2-(2-methyl-pyrimidin-5-yl)-ethyl]-2,3,4,5-tetrahydro-1H-pyrido[4,3-b]indole]	71	87	15	64	85	10
CCc1ccc(CCn2c3c(c4cc(Cl)ccc42)CN(C)CC3)cn1 [Compound 371, 8-Chloro-5-[2-(6-ethyl-pyridin-3-yl)-ethyl]-2-methyl-2,3,4,5-tetrahydro-1H-pyrido[4,3-b]indole]	88	98	93	88	99	40
CC(C)c1ccc(CCn2c3c(c4cc(Cl)ccc42)CN(C)CC3)cn1 [Compound 372, 8-Chloro-5-[2-(6-isopropyl-pyridin-3-yl)-ethyl]-2-methyl-2,3,4,5-tetrahydro-1H-pyrido[4,3-b]indole]	94	110	96	88	101	44
Cc1cccc2c3c(n(CCc4ccc(C(F)(F)F)nc4)c12)CCN(C)C3 [Compound 380, 5-(2-(6-(trifluoromethyl)pyridin-3-yl)ethyl)-2,3,4,5-tetrahydro-2,6-dimethyl-1H-pyrido[4,3-b]indole]	73	103	88	39	68	−5
Cc1ccc2c(c1)c1c(n2CCc2cncnc2)CCN(C)C1 [Compound 387, 2,8-Dimethyl-5-(2-pyrimidin-5-yl-ethyl)-2,3,4,5-tetrahydro-1H-pyrido[4,3-b]indole]	47	95	54	79	97	1
Cc1ccc(CCn2c3c(c4cc(C(C)C)ccc42)CN(C)CC3)cn1 [Compound 392, 8-Isopropyl-2-methyl-5-[2-(6-methyl-pyridin-3-yl)-ethyl]-2,3,4,5-tetrahydro-1H-pyrido[4,3-b]indole]	88	109	53	61	98	24
Cc1ccc2c(c1)c1c(n2CC(=O)N2CCCCC2)CCN(C)C1 [Compound 395, 2-(1,2,3,4-tetrahydro-2,8-dimethylpyrido[4,3-b]indol-5-yl)-1-(piperidin-1-yl)ethanone]	9	2	16	0	20	2
Cc1ccc2c(c1)c1c(n2CC(=O)N2Cc3ccccc3C2)CCN(C)C1 [Compound 397, 2-(1,2,3,4-tetrahydro-2,8-dimethylpyrido[4,3-b]indol-5-yl)-1-(isoindolin-2-yl)ethanone]	19	40	50	−9	77	5
Cc1ccc2c(c1)c1c(n2CC(=O)N2CCc3ccccc3C2)CCN(C)C1 [Compound 398, 2-(1,2,3,4-tetrahydro-2,8-dimethylpyrido[4,3-b]indol-5-yl)-1-(3,4-dihydroisoquinolin-2(1H)-yl)ethanone]	17	50	85	15	76	8
Cc1ccc2c(c1)c1c(n2CC(=O)N2CCSCC2)CCN(C)C1 [Compound 399, 2-(1,2,3,4-tetrahydro-2,8-dimethylpyrido[4,3-b]indol-5-yl)-1-thiomorpholinoethanone]	6	11	8	−5	42	0
